From paper PMC7339168 (Journal of Cellular and Molecular Medicine, 2020)

How the values were obtained:
JAK3 [1] = molecular target: T1, JAK3 (Homo sapiens, UniProt P52333)
T1 sequence (P52333 1-1124): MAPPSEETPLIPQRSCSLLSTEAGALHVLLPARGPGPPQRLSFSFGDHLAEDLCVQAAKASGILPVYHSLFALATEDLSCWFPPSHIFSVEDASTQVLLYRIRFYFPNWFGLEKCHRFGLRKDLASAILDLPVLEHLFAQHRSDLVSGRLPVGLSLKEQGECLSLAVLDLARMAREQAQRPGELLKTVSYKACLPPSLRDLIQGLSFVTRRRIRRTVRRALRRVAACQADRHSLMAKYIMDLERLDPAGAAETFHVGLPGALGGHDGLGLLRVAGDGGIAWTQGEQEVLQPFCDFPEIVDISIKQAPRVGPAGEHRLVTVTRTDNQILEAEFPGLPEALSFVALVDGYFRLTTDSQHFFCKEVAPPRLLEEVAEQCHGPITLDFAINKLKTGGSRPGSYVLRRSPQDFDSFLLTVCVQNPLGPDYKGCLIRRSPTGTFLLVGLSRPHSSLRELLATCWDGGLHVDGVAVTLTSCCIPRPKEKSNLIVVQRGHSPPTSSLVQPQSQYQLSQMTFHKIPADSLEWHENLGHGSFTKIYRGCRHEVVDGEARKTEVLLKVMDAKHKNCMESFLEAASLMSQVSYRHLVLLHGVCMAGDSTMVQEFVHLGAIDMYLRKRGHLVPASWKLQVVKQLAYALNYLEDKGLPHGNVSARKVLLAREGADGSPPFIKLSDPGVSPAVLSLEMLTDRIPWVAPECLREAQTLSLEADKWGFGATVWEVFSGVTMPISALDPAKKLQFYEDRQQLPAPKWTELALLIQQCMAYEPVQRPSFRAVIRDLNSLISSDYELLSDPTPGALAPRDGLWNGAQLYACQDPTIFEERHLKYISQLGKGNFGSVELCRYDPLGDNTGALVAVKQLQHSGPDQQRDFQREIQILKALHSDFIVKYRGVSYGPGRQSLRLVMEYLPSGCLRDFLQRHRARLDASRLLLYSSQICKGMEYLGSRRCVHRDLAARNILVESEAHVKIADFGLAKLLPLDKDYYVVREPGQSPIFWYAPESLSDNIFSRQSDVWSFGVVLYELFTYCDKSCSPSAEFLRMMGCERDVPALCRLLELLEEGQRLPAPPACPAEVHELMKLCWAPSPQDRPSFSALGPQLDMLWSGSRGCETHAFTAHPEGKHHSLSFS

JAK3 [2] = molecular target: T1, JAK3; test: KinaseProfiler kinase assay, positive control; assay type: biochemical
JAK1 = JAK1 (Homo sapiens, UniProt P23458); test: radiometric KinaseProfiler kinase assay, […] ATP; assay type: biochemical
JAK2 = JAK2 (Homo sapiens, UniProt O60674); test: radiometric KinaseProfiler kinase assay, […] ATP; assay type: biochemical
JAK3 [3] = molecular target: T1, JAK3; test: radiometric KinaseProfiler assay with ATP titration (Ki; IC50 […]); also JAK3 immunoprecipitate kinase assay; assay type: biochemical
TYK2 = TYK2 (Homo sapiens, UniProt P29597); test: radiometric KinaseProfiler kinase assay, […] ATP; assay type: biochemical
Chain of TYK2 (P29597 whole entry): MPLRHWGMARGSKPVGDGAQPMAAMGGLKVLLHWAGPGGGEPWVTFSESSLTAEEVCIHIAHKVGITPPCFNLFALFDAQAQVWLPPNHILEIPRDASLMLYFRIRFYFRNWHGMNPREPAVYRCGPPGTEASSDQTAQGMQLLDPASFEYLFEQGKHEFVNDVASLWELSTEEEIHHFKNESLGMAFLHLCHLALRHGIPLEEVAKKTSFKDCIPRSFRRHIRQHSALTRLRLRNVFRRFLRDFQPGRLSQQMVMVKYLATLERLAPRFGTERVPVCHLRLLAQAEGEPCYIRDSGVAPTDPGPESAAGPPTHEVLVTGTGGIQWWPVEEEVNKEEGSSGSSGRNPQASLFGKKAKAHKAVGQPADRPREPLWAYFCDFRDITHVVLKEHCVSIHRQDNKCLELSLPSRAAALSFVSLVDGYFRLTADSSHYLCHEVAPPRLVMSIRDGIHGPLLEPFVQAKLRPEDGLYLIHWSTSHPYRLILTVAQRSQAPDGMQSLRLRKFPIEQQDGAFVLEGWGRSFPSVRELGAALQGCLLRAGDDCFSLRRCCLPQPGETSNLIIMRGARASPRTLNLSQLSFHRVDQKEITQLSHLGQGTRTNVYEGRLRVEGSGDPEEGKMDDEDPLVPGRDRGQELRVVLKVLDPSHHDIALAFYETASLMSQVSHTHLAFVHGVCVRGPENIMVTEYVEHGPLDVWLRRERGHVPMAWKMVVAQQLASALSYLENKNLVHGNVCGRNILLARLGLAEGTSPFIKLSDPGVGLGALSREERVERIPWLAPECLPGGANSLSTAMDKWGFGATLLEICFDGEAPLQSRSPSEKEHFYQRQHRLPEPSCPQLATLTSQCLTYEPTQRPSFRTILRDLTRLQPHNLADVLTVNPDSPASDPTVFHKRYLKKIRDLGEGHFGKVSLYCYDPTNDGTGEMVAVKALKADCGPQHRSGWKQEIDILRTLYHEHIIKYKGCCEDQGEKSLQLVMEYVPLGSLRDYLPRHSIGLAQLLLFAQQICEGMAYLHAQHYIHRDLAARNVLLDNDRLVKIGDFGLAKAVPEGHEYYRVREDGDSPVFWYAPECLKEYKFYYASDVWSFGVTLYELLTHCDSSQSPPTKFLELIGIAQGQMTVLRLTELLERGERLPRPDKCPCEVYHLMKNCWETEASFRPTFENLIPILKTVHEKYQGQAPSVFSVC

Chain of JAK1 (P23458 whole entry): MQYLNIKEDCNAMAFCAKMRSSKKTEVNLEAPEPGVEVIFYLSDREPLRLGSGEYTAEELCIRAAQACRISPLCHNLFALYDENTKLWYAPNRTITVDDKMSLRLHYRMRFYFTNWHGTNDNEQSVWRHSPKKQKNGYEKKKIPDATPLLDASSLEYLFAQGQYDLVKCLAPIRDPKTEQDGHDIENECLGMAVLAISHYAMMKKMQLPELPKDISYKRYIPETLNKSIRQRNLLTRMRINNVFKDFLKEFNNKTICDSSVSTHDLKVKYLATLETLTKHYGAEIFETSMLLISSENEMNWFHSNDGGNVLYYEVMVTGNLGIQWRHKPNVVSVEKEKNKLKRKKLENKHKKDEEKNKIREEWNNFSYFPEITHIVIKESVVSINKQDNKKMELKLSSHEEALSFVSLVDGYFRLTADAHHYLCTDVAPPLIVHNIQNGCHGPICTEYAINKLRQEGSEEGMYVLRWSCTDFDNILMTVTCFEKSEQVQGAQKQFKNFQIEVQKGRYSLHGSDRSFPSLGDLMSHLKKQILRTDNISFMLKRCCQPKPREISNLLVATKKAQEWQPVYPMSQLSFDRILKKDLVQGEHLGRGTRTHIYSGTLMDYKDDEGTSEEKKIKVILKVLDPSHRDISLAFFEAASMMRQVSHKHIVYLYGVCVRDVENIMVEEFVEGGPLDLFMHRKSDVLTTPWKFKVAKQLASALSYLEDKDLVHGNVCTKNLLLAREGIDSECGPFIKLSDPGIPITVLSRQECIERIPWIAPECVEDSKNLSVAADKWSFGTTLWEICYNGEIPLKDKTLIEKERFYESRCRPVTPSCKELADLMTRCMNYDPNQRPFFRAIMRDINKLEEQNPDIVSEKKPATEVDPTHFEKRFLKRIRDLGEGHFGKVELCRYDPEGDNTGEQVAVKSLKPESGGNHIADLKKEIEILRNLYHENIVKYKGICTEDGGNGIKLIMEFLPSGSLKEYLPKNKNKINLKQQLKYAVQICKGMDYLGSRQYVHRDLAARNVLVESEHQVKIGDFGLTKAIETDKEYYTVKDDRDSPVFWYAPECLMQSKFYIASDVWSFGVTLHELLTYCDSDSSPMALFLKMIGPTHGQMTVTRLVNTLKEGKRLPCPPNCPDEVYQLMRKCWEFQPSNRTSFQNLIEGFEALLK
Chain of JAK2 (O60674 whole entry): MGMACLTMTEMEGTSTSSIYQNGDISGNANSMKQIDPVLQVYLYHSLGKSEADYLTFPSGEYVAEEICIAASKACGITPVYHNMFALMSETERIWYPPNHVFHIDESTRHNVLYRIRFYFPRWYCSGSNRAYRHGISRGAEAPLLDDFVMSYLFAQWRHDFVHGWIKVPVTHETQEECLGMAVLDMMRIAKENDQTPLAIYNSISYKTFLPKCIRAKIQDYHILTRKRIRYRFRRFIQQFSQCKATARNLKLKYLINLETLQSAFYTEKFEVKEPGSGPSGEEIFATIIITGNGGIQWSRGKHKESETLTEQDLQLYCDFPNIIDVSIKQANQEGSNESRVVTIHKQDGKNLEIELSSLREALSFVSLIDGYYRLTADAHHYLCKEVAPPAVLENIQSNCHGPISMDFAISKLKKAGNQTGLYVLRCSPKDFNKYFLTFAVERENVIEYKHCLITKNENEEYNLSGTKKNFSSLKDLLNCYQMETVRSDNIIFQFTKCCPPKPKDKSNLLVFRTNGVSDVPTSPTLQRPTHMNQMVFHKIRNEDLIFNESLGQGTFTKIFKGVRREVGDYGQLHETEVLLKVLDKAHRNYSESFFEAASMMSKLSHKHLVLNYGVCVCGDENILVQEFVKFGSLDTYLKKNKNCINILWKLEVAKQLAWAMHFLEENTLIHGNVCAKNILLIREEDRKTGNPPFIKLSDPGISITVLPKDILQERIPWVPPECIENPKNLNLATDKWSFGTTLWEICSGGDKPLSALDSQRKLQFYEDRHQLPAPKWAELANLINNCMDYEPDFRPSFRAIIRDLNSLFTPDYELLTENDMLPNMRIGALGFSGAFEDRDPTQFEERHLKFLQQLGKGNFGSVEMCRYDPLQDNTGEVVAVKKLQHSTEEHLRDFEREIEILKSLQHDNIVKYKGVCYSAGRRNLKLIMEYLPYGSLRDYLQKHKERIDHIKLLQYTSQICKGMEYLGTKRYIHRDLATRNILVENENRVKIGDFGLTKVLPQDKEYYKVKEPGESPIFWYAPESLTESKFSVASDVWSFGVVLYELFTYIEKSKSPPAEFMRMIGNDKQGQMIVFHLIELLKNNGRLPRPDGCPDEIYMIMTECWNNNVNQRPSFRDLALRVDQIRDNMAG

Nc1ncnc2c1ncn2[C@@H]1O[C@H](COP(=O)(O)OP(=O)(O)OP(=O)(O)O)[C@@H](O)[C@H]1O [ATP]
Km (JAK3 [1]): 212 ± 25.7 µM

CN[C@@H]1C[C@H]2O[C@@](C)([C@@H]1OC)n1c3ccccc3c3c4c(c5c6ccccc6n2c5c31)C(=O)NC4 [staurosporine]
KinaseProfiler kinase assay, positive control (JAK3 [2]): Staurosporine was used as a positive control for ATP‐competitive inhibition of JAKs

CC[C@H]1CN2CCc3cc(OC)c(OC)cc3[C@@H]2C[C@@H]1C[C@H]1NCCc2c1[nH]c1ccc(O)cc21 [tubulosine]
IC50 (JAK1): 69.5 nM
IC50 (JAK2): 84.9 nM
Ki (JAK3 [3]): 12.9 ± 1.3 nM
IC50 (TYK2): 76.3 nM
